Results taken from patent US20230391748A1, “BICYCLIC INHIBITORS OF IRAK” (priority 2022, published 2023).

Experiments:
[1] = biological target: IRAK4 (Homo sapiens (Human), UniProt Q9NWZ3); experiment: IRAK4 ADP-Glo Assay; type: biochemical; conditions: MBP substrate
Method: The ADP-Glo™ reagents were thawed at ambient temperature. The Kinase Detection Reagent was prepared by mixing kinase detection buffer with the lyophilized kinase detection substrate, and set aside.
A stock volume of 5× Reaction Kinase Buffer was made with a final concentration of 100 mM MgCl2, 200 mM Tris-HCl, and 0.5 mg/ml of BSA, in distilled H2O with a final pH7.4. A 2× working stock volume of Reaction Kinase Buffer was made containing a final concentration of 100 μM DTT.
The components of IRAK4 Enzyme were thawed on ice. Diluted IRAK4 in 1× Kinase Reaction Buffer (diluted from 2× buffer) was prepared at 5.0 ng/μl.
Then diluted 1:5 in 2× Reaction Buffer in a 96 well plate. 1.0 μl was transferred to a 384 well plate in duplicate. […] 1 μl of 1 mg/ml stock solution of MBP substrate was added NOTE: MBP can be combined with ATP mix with equal volume and then added at 2 μl/well. Final reaction volume was 5 μl.
The plate was centrifuged and the reaction mixture was incubated at room temperature for 60 minutes or at 30° C. for 30 minutes.
The reaction was terminated and the remaining ATP was depleted by adding 5 μl of ADP-Glo™ Reagent. The 384-well plate was centrifuged and then the reaction mixture was incubated for another 40 minutes at ambient temperature.
10 μl of the Kinase Detection Reagent was added. The plate was centrifuged and then the reaction mixture was incubated for another 30 minutes at ambient temperature.
The 384-well reaction plate was read using the WALLAC plate reader (Luminescence 0.1s).

[2] = tested on: IL23p19 in THP-1 Cells; experiment: LPS Induced IL23p19 in THP-1 Cells (with IFNγ Primed) Assay; type: cell-based; conditions: Homo sapiens, THP-1, 18 h, read-out: IL23 (THP, LPS) (IC50, μM)
Method: LPS Induced IL23p19 in THP-1 Cells (with IFNγ Primed) Assay
On day 1, 50K/well THP-1 cells were seeded and primed with IFNγ (50 ng/mL) in 384-well plates for about 18 hours in RPMI media with 10% FBS. […] 50 μL/well 2× compound was added to 50 μL/well THP-1 cells (with IFNγ primed) in duplicate in 384 well tissue culture plates. […] Day 3, after stimulation for 18 hours at 37° C., 5% CO2, the assay plate was centrifuged and 70 μL/well supernatant was harvested. IL-23p19 protein in 70 µL/well of supernatant was measured by sandwich ELISA, and 25 μl/well Cell Titer Glo reagent was added to the remaining cells to measure compound toxicity.
Maxisorp immuno ELISA plates were pre-coated with 25 μL/well of anti-IL-23p19 capture antibody (2.5 ug/mL) in PBS overnight at room temperature. […] 25 μL/well of biotin labeled anti-IL-12(p40/p70) detection antibody (100 ng/mL) in PBS with 1% BSA was added and the plates were incubated at room temperature for 2 hours with shaking. […] The plates were read with a luminometer, and the chemiluminescence values were entered into Athena (Rigel) for curve fitting, EC50 calculation, and database storage.

[3] = tested on: TNF-α in human PBMCs; experiment: R848-induced TNF-α in human PBMCs Assay; type: cell-based; conditions: Homo sapiens, PBMC, 4 h, read-out: TNFα (PBMC, R848) (IC50, μM)
Method: R848-induced TNF-α in human PBMCs Assay
100 μL/well PBMCs (200K/well) were seeded in 96-well flat-bottom tissue culture plates. […] 100 μL/well 2× compound was added to the PBMC in the tissue culture plates. […] The cells were stimulated with R848 for an additional 4 hours at 37° C., 5% CO2. The supernatant (100 μl/well) was harvested to measure TNF-α by ELISA. […] The chemiluminescence values were entered into Athena (Rigel) for curve fitting, EC50 calculation, and database storage.
(§1) TNF-α ELISA was performed according to the vendor protocol, using 96 Well Flat-Bottom, MaxiSorp Black Immuno plates and 100 μL/well of supernatant. The plates were developed using 100 μL/well of Super Signal ELISA Pico Chemiluminescent Substrate. The plates were read with a luminometer, and the chemiluminescence values were entered into Athena (Rigel) for curve fitting, EC50 calculation, and database storage.

[4] = tested on: TNF-α in Human Primary Monocyte-Derived Dendritic Cells; experiment: Gardiquimod-Induced TNF-α in Human Primary Monocyte-Derived Dendritic Cells; type: cell-based; conditions: Dendritic cell, IFNγ-primed monocyte-derived dendritic cells, 4 μg/ml Gardiquimod, 6 hours, TNF-α ELISA, read-out: TNFα (DC, GARD) (IC50)
Method: Gardiquimod-Induced TNF-α in Human Primary Monocyte-Derived Dendritic Cells
After 2 hours, the media including floating cells was carefully removed and 12 ml of fresh RPMI media (10% FBS) containing GM-CSF (100 ng/ml) and IL-4 (20 ng/ml) were added to the adherent monocytes. The monocytes were allowed to differentiate for 7 days at 37° C., 5% CO2 for 7 days, supplementing with fresh GM-CSF and IL-4 after 3 days. The differentiated dendritic cells (DC) were harvested by centrifugation (1200 rpm/5 min). The DCs were primed at 37° C., 5% CO2 for 24 hours with 50 ng/ml IFN-γ (1000 U/ml) at 50K/well in 100 μl/well of fresh RPMI media (10% FBS) in a white clear bottom 96 well plate.
The primed DCs were pre-incubated with test compound for 1 hour at 37° C., 5% CO2 by adding 100 μl of RPMI media containing 2× concentrated test compound per well (0.5% final DMSO concentration).
DCs were stimulated with Gardiquimod (10 μl per well of 20× concentrated Gardiquimod solution in RPMI media to give a final concentration of 4 μg/ml) at 37° C., 5% CO2 for an additional 6 hours. The supernatant (100 μl/well) was harvested to measure TNF-α by ELISA. […] The chemiluminescence values were entered into Athena (Rigel) for curve fitting, EC50 calculation, and database storage.
as §1

Chain of IRAK4 (Q9NWZ3 whole entry): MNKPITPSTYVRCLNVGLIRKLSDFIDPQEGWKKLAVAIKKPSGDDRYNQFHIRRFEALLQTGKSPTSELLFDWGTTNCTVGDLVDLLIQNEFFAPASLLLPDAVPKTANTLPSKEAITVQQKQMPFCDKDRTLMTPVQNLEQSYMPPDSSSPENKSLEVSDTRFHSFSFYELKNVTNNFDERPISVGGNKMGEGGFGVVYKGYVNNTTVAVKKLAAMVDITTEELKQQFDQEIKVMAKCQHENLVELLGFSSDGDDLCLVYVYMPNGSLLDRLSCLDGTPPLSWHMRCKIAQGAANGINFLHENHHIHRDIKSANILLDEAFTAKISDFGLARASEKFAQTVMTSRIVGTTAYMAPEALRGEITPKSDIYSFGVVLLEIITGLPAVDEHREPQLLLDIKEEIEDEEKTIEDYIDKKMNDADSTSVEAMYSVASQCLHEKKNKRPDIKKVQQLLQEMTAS

| SMILES | IC50 [1] [nM] | IC50 [2] [µM] | IC50 [3] [µM] | IC50 [4] [nM] |
| --- | --- | --- | --- | --- |
| CC(C)Oc1cc2c(OC[C@@H]3CCC(=O)N3)ncc(C#C[C@H]3CC[C@](C)(O)CC3)c2cc1C(N)=O [Compound I-22, 4-(((1r,4S)-4-hydroxy-4-methylcyclohexyl)ethynyl)-7-isopropoxy-1-(((S)-5-oxopyrrolidin-2-yl)methoxy)isoquinoline-6-carboxamide] | 12.3 | 0.208 | 0.049 | 72.9 |
| CC(C)Oc1cc2c(OC[C@@H]3CCC(=O)N3)ncc(C#C[C@H]3CC[C@@](C)(O)CC3)c2cc1C(N)=O [Compound I-23, 4-(((1s,4R)-4-hydroxy-4-methylcyclohexyl)ethynyl)-7-isopropoxy-1-(((S)-5-oxopyrrolidin-2-yl)methoxy)isoquinoline-6-carboxamide] | 11.4 | 0.712 | 2.12 | 566 |
| CC(C)Oc1cc2c(OC[C@@H]3CCC(=O)N3)ncc(C#CC3CN(C(=O)OC(C)(C)C)C3)c2cc1C(N)=O [Compound I-24, tert-butyl (S)-3-((6-carbamoyl-7-isopropoxy-1-((5-oxopyrrolidin-2-yl)methoxy)isoquinolin-4-yl)ethynyl)azetidine-1-carboxylate] | 8.1 | 0.125 | 0.0763 | 22.4 |
| CC(C)Oc1cc2c(OC[C@@H]3CCC(=O)N3)ncc(C#CC3CNC3)c2cc1C(N)=O [Compound I-25, (S)-4-(azetidin-3-ylethynyl)-7-isopropoxy-1-((5-oxopyrrolidin-2-yl)methoxy)isoquinoline-6-carboxamide] | 3.3 | 12.7 | 2.36 | 1350 |
| CC(C)Oc1cc2c(OC[C@@H]3CCC(=O)N3)ncc(C#CC3CN(C)C3)c2cc1C(N)=O [Compound I-26, (S)-7-isopropoxy-4-((1-methylazetidin-3-yl)ethynyl)-1-((5-oxopyrrolidin-2-yl)methoxy)isoquinoline-6-carboxamide] | 2.6 | 0.726 | 0.363 | 161 |
| CC(C)Oc1cc2c(OC[C@@H]3CCC(=O)N3)ncc(C#CC3CN(C(C)C)C3)c2cc1C(N)=O [Compound I-27, (S)-7-isopropoxy-4-((1-isopropylazetidin-3-yl)ethynyl)-1-((5-oxopyrrolidin-2-yl)methoxy)isoquinoline-6-carboxamide] | 5.6 | 0.634 | 0.176 | 514 |
| COC(=O)N1CC(C#Cc2cnc(OC[C@@H]3CCC(=O)N3)c3cc(OC(C)C)c(C(N)=O)cc23)C1 [Compound I-28, methyl (S)-3-((6-carbamoyl-7-isopropoxy-1-((5-oxopyrrolidin-2-yl)methoxy)isoquinolin-4-yl)ethynyl)azetidine-1-carboxylate] | 6.3 | 0.14 | 0.0331 | 111 |
| CNC(=O)N1CC(C#Cc2cnc(OC[C@@H]3CCC(=O)N3)c3cc(OC(C)C)c(C(N)=O)cc23)C1 [Compound I-29, (S)-7-isopropoxy-4-((1-(methylcarbamoyl)azetidin-3-yl)ethynyl)-1-((5-oxopyrrolidin-2-yl)methoxy)isoquinoline-6-carboxamide] | 5.5 | 4.25 | 0.686 | 1750 |
| COC1(OC)CC(C#Cc2cnc(OC[C@@H]3CCC(=O)N3)c3cc(OC(C)C)c(C(N)=O)cc23)C1 [Compound I-30, (S)-4-((3,3-dimethoxycyclobutyl)ethynyl)-7-isopropoxy-1-((5-oxopyrrolidin-2-yl)methoxy)isoquinoline-6-carboxamide] | 6.4 | 0.142 | 0.0947 | 71 |
| CC(C)Oc1cc2c(OC[C@@H]3CCC(=O)N3)ncc(C#C[C@H]3C[C@@H](N(C)C)C3)c2cc1C(N)=O [Compound I-31, 4-((cis-3-(dimethylamino)cyclobutyl)ethynyl)-7-isopropoxy-1-(((S)-5-oxopyrrolidin-2-yl)methoxy)isoquinoline-6-carboxamide] | 3.5 | 0.136 | 0.0637 | 89.8 |
| CC(C)Oc1cc2c(OC[C@@H]3CCC(=O)N3)ncc(-c3cnn(C4CC4)c3)c2cc1C(N)=O [Compound I-32, (S)-4-(1-cyclopropyl-1H-pyrazol-4-yl)-7-isopropoxy-1-((5-oxopyrrolidin-2-yl)methoxy)isoquinoline-6-carboxamide] | 8.5 | 2.21 | 0.45 | 569 |
| CC(C)Oc1cc2c(OC[C@@H]3CCC(=O)N3)ncc(-c3cnn(C4CCC4)c3)c2cc1C(N)=O [Compound I-33, (S)-4-(1-cyclobutyl-1H-pyrazol-4-yl)-7-isopropoxy-1-((5-oxopyrrolidin-2-yl)methoxy)isoquinoline-6-carboxamide] | 7.5 | 0.2 | 0.272 | 218 |
| CC(C)Oc1cc2c(OC[C@@H]3CCC(=O)N3)ncc(-c3cnn(C4CCCC4)c3)c2cc1C(N)=O [Compound I-34, (S)-4-(1-cyclopentyl-1H-pyrazol-4-yl)-7-isopropoxy-1-((5-oxopyrrolidin-2-yl)methoxy)isoquinoline-6-carboxamide] | 7.7 | 1.3 | 0.295 | 470 |
| CC(C)Oc1cc2c(OC[C@@H]3CCC(=O)N3)ncc(-c3cnn(C4CCOCC4)c3)c2cc1C(N)=O [Compound I-35, (S)-7-isopropoxy-1-((5-oxopyrrolidin-2-yl)methoxy)-4-(1-(tetrahydro-2H-pyran-4-yl)-1H-pyrazol-4-yl)isoquinoline-6-carboxamide] | 25.7 | 7.52 | 1.3 | 1620 |
| CC(C)Oc1cc2c(OC[C@@H]3CCC(=O)N3)ncc(-c3cnn(CC4CCOCC4)c3)c2cc1C(N)=O [Compound I-36, (S)-7-isopropoxy-1-((5-oxopyrrolidin-2-yl)methoxy)-4-(1-((tetrahydro-2H-pyran-4-yl)methyl)-1H-pyrazol-4-yl)isoquinoline-6-carboxamide] | 13.5 | 0.976 | 0.377 | 398 |
